Where a SMILES comes first, the peptide text is derived from it. The star is where a group is joined. Cbz = O=C(OCc1ccccc1)*
Test system: RAW264.7
Assay: Anti-inflammatory activity against mouse RAW264.7 cells assessed as inhibition of LPS-induced NO production pretreated with compound for 2 hrs followed by LPS stimulation for 12 hrs by Griess reagent based analysis
Assay type: functional, cell-based

| Structure (SMILES) | IC50 [µM] |
| --- | --- |
| Oc1ccc2c3c1[C@@H](O)[C@H]1O[C@H]1[C@]31Oc3cccc4c3[C@](CC[C@@H]4O)(O2)O1 | 5.9 |
| O=C1C[C@@H](O)[C@]23Oc4cccc5c4[C@](CC[C@@H]5O)(Oc4ccc(O)c1c42)O3 | 12.8 |
| Cc1cc2c(c(=O)o1)[C@@H]1[C@H](O2)[C@H](O)c2c(O)ccc3c2[C@@]12Oc1cccc4c1[C@](CC[C@@H]4O)(O3)O2 | 4.8 |
| Cc1cc2c(c(=O)o1)[C@@H]1[C@H](O2)[C@H](O)c2c(O)ccc3c2[C@@]12Oc1cccc4c1[C@](C=C[C@@H]4O)(O3)O2 | 8.5 |
| CC(C)C[C@@H](C=O)NC(=O)[C@H](CC(C)C)NC(=O)[C@H](CC(C)C)NC(=O)OCc1ccccc1 [MG-132] (Cbz-Leu-Leu-Leu-aldehyde) | 2.6 |

Reference: ChEMBL document CHEMBL5233286, “Lasiodiplodiapyrones A and B, Pyrone-Preussomerin Adducts with Highly Strained Polycyclic Ring Systems from Lasiodiplodia pseudotheobromae” (J Nat Prod, 2023)
